This passage reports Microsomal stability mouse results from US20180118721A1, “PYRIMIDINE DERIVATIVES” (Merck Patent GmbH, priority 2015, published 2018).

The data set can be described thus: Microsomal stability (intrinsic clearance), mouse. The data set is classed as in vitro ADME. To be noted: mouse liver microsomes, 0.5 mg/ml protein, Clint. The text has this: A microsomal stability assay is used to measure in vitro clearance (Clint). The assay involves measuring the rate of disappearance of a compound due to its intrinsic attitude to be metabolized (“intrinsic” meaning that the disappearance is not affected by other properties like permeability, binding etc. that play a role when quantifying in vivo clearance). The microsomal stability (intrinsic clearance, Clint) and thus metabolic stability is generally given as μl/min/mg protein. It can be visualized as the volume of solution that 1 mg of microsomes is able to clear of the compound in one minute.
A Tecan Genesis workstation (RSP 150/8) was used for to perform the microsomal incubations. Analysis was carried out using a Waters ACQUITY UPLC system coupled to an ABSciex API3000 mass spectrometer. Data analysis was performed using Assay Explorer (Symyx).
Column: Acquity UPLC BEH C18, 2.1×50 mm, 1.7 μm (Waters) Mobile phases: A=0.1% formic acid in water; B=acetonitrile
Flow rate: 0.750 mL/min; Detection: ESI, MRM; Injection: 10 μL; Column temperature: 50° C.
• Potassium phosphate buffer: 0.05 M potassium phosphate buffer pH 7.4 containing 1 mM MgCl2 • NADPH (nicotinamide adenine dinucleotide phosphate): 22.5 mg NADPH-Na4 in 1.8 ml potassium phosphate buffer • Acetonitrile: 50 Vol % acetonitrile (1 volume acetonitrile, 1 volume water) • DMSO: 20 Vol % DMSO in water • Stock solution of 20 mg/ml human or mouse liver microsomes (protein)/ml in phosphate buffer • Stock solution of 10 mM compound in 100% DMSO
Dilution of test compounds was done in 2 steps starting from a 10 mM stock solution of the respective compound in 100% DMSO. First 4 μl stock solution was added to 196 μl of 20 Vol % DMSO. In a second step, 10 μl of the first dilution were added to 1590 μl potassium phosphate buffer to achieve a final concentration of 1.25 μM in the final compound dilution. Thus, the amount of organic solvent in the assay was kept to a minimum (<1%).
The human or mouse liver microsome (protein) solution to be used in the assay was prepared by mixing 750 μl stock solution (20 mg/ml) and 2250 μl potassium phosphate buffer to a final concentration of 5 mg/ml.
Incubation was carried out on a 96 deep well incubation plate. 160 μl per well of the final compound dilution were transferred onto the incubation plate. Four samples of each compound dilution were assayed. 20 μl/well liver microsome solution was added to each well and the samples were then preincubated for 5 min at 37° C. and 800 rpm agitation. Two reference compounds (verapamil and dextromethorphan) were used in parallel in every experiment and for each species (human or mouse microsomes) to ensure system performance and for comparison.
On a separate stop plate, 160 μl acetonitrile were added per well.
After preincubation, i.e. at time t1=0 minutes, 18 μl samples of incubated compound solution and were transferred and added per well (containing acetonitrile) on the stop plate to prevent a reaction (0 minutes control samples, 4 samples per compound). Equally, 18 μl samples of incubated reference compound solution were transferred and added per well (containing acetonitrile) on the stop plate at time t1=0 minutes and again after 30 minutes (t4), solubility and chemical stability of the compound were checked. […]
(Liver microsomes are a subcellular fraction often used to study metabolism.)

For the molecule `CNc1cc(-c2cccc(Cl)c2Cl)nc(N)n1` [TH-287, reference compound], the Microsomal stability mouse stood at 444 μl/min/mg prot.
